Earlier results in PMC11165342 (Asian Journal of Pharmaceutical Sciences, 2024).

CC(C(=O)O)c1ccc(-c2ccccc2)c(F)c1 (stereo not shown) [FB, Flurbiprofen]
pKa: 3.5–4.5
